How the values were obtained:
LasR = LasR assay (unstable gfp fused to the elastase promoter); assay type: cell-based; conditions: Pseudomonas aeruginosa, read-out: LasR (conc)
Procedure: Compounds of the present invention were also assayed using a LasR assay. The LasR assay provides a measurement of quorum sensing inhibition activity. The higher the percentage inhibition. […] In the LasR assay, an unstable gfp has been fused to the elastase promoter, so that the amount of Gfp is regulated by the QS system. The plasmid is put into Pseudomonas aeruginosa which makes its own AHL signals. The assay is performed by adding the compounds to be tested to the system at the beginning of the experiment, at different concentrations. Gfp expression is measured at different times during growth, ending at the 24 h time point. The percentage fluorescence was determined at the time point when the fluorescence reached its maximum in the control, usually around 11-12 h after inoculation.

V. fischeri luxRI system = assay: N-acylated homoserine lactone (AHL) quorum sensing assay, GFP reporter strain; assay type: cell-based, E. coli; conditions: for ID40 at 3 nM OHHL: Table 4, number in parentheses, unit not given, amount of compound lowering relative activity to 40%
Procedure: Compounds of the present invention were compared to compounds of the prior art in order using an AHL-quorum sensing assay which utilises a reporter strain that expresses Green Fluorescent Protein (GFP) in the presence of AHL signals. The assay is performed by measuring GFP output in the presence of the compound to be measured and comparing the output to a control. By using multiple samples at varying concentrations of compound and AHL, an inhibition index of compound activity can be generated. The inhibition index used in the present example is the relative amount of compound required to reduce GFP expression to 40% of the control. The inhibition index is termed AIC40. Lower values of AIC40 represent better inhibitors of the AHL quorum sensing system.
The reporter strain of bacterium used in this assay is E. coli into which the V. fischeri luxRI system has been engineered. A gfp gene is fused to the QS controlled luxI promoter as is described in (Andersen et al., 2001, and Andersen et al, 1998).
Measurement of AIC40 (ID40 at 3 nM OHHL)
Determination of the activity of compounds using the E. coli based luxRI construct was performed as follows.
In a 15 mL plastic tube, mix 3 mL of o.n. culture of the lux reporter strain with 12 mL fresh medium, incubate at 37° C. Label six tubes, 10, 20, two 50 and two 100. To each of the tubes, add OHHL (3-oxohexanoyl homoserine lactone) to a final concentration of 10, 20, 50, or 100 nM respectively in the AB medium (add enough medium to distribute across the appropriate number of wells). To the first row of the microplate (row A), add 200 ul of the OHHL/AB mixture. To the remaining rows (B-H) add 100 ul of the OHHL/AB mixture. To the first row (A) add compounds to be tested to the 200 ul mixture of OHHL/AB. Make a dilution series in the first 7 rows by transferring 100 μL from wells in row 1 to wells in row 2 and so on. Discard the remaining 100 μL from row 7. Add 100 μL diluted lux monitor to each well. Incubate the plate 2 hours at 37° C. and measure green fluorescence using the “Victor” plate reader.
Calculate ID40 for each column. To do this, calculate the relative activity in each well. […] Make a plot for each concentration of OHHL vs. the range of compound concentrations used. Calculate the amount of compound needed to lower the relative activity to 40%, this is termed inhibiting dose 40%, ID40. For each compound an inhibition index, AIC40, is found as follows: plot ID40 against its respective AHL concentration; AIC40 is the slope of the best straight line through the plotted points and origin.
The methodology for this assay is set out in 2(a) above.

Murine L929 cells = assay: Cytotoxicity study, L929 cell number after 48 hour culture; assay type: cell-based; conditions: for Mean (cell number): L929, 48 hour; for % Inhibition: cell number vs non-challenged cultures
Procedure: Murine L929 cells are established at low density and, during the testing period, grow to confluency in plastic petri dishes. 24 hours after the dishes are inoculated, the medium on the test dishes is aspirated and replaced with a medium containing the compound to be tested. The cell monolayer is then cultured for a further 48 hour period. At the end of the test period, cells are harvested from the dishes and their numbers assessed and compared with unperturbed cultures. Differences in cell numbers are expressed as a percentage inhibition in comparison to non-challenged cultures.

S. epidermidis biofilm = assay: Inhibition of biofilm formation in petri dishes, S. epidermidis; assay type: cell-based; conditions: percent reduction of control
Procedure: (§1) Biofilm formation in petri dishes was measured using the following protocol as a compromise between flow cells and microtitire plate based assays. The method increases the number of replicates (relative to flow cells) that can be tested while still generating a biofilm that has typical structures, such as microcolonies, which are important as differentiated structures within the biofilm. The method consists of placing a surface, such as a glass slide (for unattached compounds) or a modified plastic coupon (for covalently attached compounds) on the bottom of a sterile petri dish and adding growth medium. The bacteria are inoculated into the dish and allowed to incubate at the appropriate temperature at 50 rpm. The medium is replaced at 24 h and allowed to incubate a further 24 h, after which time, the slides are removed and rinsed to remove loosely attached cells. For monitoring biofilm formation on glass slides, the cells are either stained with a suitable fluorescent stain and are visualised using the confocal microscope and the biofilm (as % surface coverage) is quantified, or the biofilm is stained with crystal violet, washed thoroughly to remove excess stain, and subsequently destained and the absorbance at […] is measured to determine the amount of biofilm, as a function of crystal violet staining.

[1] = system: Staphylococcus epidermidis; assay: S. epidermidis growth inhibition (OD600 growth curves); assay type: cell-based; conditions: concentration of compound that significantly alters growth rate or final growth yield
Procedure: The growth inhibition of Staphylococcus epidermidis by the compounds of the present invention was determined by growing S. epidermidis in 96 well microtitre plates in Trypticase Soy Broth plus 0.5% glucose in a Wallac Victor2 microplate reader. Each compound was added to the wells at different concentrations and a no-compound control and a set of blank wells were also used. The OD600 was measured hourly.

P. aeruginosa biofilm = assay: Inhibition of biofilm formation in petri dishes, P. aeruginosa; assay type: cell-based; conditions: percent reduction of control
Procedure: as §1

[2] = Table 4 comparative results, first number of the cell, lower = better
[3] = inhibition index: slope of ID40 against AHL concentration, lower = better inhibitor, NE = no effect

## C=C1NC(=O)C=C1Cc1ccccc1
LasR
  inhibition at 50 µg/mL: 61%
V. fischeri luxRI system
  ID40 at 3 nM OHHL: 239.79
V. fischeri luxRI system; [2]
  AIC40: 69.45
V. fischeri luxRI system; [3]
  AIC40: 69.45

## C=C1NC(=O)C=C1c1ccc(Br)cc1 [Compound 295]
V. fischeri luxRI system; [2]
  AIC40: significantly better AIC40 values than compounds 198 and 205

## O=C1C=C(Br)/C(=C/Br)N1Cc1ccccc1 [reference compound]
V. fischeri luxRI system; [2]
  AIC40: 27

## CCO [Ethanol]
Murine L929 cells; 4% Ethanol
  Mean (cell number): 3.40E+05
  % Inhibition: 30.7%
Murine L929 cells; 5% Ethanol
  Mean (cell number): 3.09E+05
  % Inhibition: 36.9%
Murine L929 cells; 7.5% Ethanol
  Mean (cell number): 7.63E+04
  % Inhibition: 84.5%

## C=C1NC(=O)C=C1c1ccc(OC)cc1 [Compound 294]
V. fischeri luxRI system; [2]
  AIC40: significantly better AIC40 values than compounds 198 and 205

## C=C1NC(=O)C=C1c1ccc(F)cc1 [drawing 21]
S. epidermidis biofilm; 10 ug/ml
  S. epidermidis biofilm: 40% (10 ug/ml)
[1]
  minimal effective concentration: 20 µg/mL
LasR
  inhibition at 50 µg/mL: 61%
V. fischeri luxRI system
  ID40 at 3 nM OHHL: 17.61
V. fischeri luxRI system; [2]
  AIC40: 4.61
V. fischeri luxRI system; [3]
  AIC40: 4.61
P. aeruginosa biofilm; 12.5 ug/ml
  P. aeruginosa biofilm: 78% (12.5 ug/ml)

## C=C1NC(=O)C=C1c1cccc(C(F)(F)F)c1
[1]
  minimal effective concentration: 0.5 µg/mL
LasR
  inhibition at 25 µg/mL: 40%
V. fischeri luxRI system; [3]
  AIC40: 4.6

## CC1(O)NC(=O)C=C1Cc1ccccc1 (centres unmarked)
[1]
  minimal effective concentration: > 100 µg/mL

## C=C1C(c2ccccc2)=CC(=O)N1C
LasR
  inhibition at 50 µg/mL: 40%
V. fischeri luxRI system
  ID40 at 3 nM OHHL: 163.26
V. fischeri luxRI system; [2]
  AIC40: 52.76
V. fischeri luxRI system; [3]
  AIC40: 52.76

## CC(C)CN1C(=O)C=C(c2ccccc2)C1=C(Br)Br [Compound 226]
Murine L929 cells; 5 μg/ml
  Mean (cell number): 3.41E+05
  % Inhibition: 21.8%
Murine L929 cells; 10 μg/ml
  Mean (cell number): 2.14E+05
  % Inhibition: 50.9%
Murine L929 cells; 20 μg/ml
  Mean (cell number): 2.42E+05
  % Inhibition: 44.4%
Murine L929 cells; 40 μg/ml, E+05 = ×10^5
  Mean (cell number): 1.67E+05
Murine L929 cells; 40 μg/ml, 30% = cytotoxic potential
  % Inhibition: 61.6%

## CC1(O)NC(=O)C=C1c1ccccc1F (centres unmarked)
S. epidermidis biofilm; 50 ug/ml
  S. epidermidis biofilm: 17% (50 ug/ml)
[1]
  minimal effective concentration: > 100 µg/mL
LasR
  inhibition at 100 µg/mL: 40%
V. fischeri luxRI system; [3]
  AIC40: 9.9
P. aeruginosa biofilm; 20 ug/ml
  P. aeruginosa biofilm: 12% (20 ug/ml)

## C=C1NC(=O)C=C1c1cccc(F)c1
[1]
  minimal effective concentration: 0.5 µg/mL
LasR
  inhibition at 25 µg/mL: 70%
V. fischeri luxRI system; [3]
  AIC40: 1.3

Reference: patent US9586901B2, “Lactams” (UNILEVER PLC, priority 2006, dated 2017)
